Six compounds from patent US7994162B2, “2-alkoxy-3,4,5-trihydroxy-alkylamide-benzazepines, the preparation and use thereof, and compositions containing the same” (Sanofi-Aventis, priority 2006, dated 2011) can be followed below.

As usually defined, the pIC50 is the IC50 on a negative log10 scale, so that one unit is a factor of ten. A higher pIC50 goes with a low IC50. As usually defined, the Papp is a coefficient for how fast a substance crosses the barrier.

pIC50: −log10 of the molar value.

The test system of the first data set is HCT116 cells. The data set can be described thus: Inhibition of the cell proliferation of HCT116 cells (14C-thymidine incorporation). The format is cell-based. The settings on record: Homo sapiens, HCT-116, 96 hours. On the procedure:
The antiproliferative activity of the products of the examples of Table 1 was determined by measuring the inhibition of the cell proliferation of HCT116 cells. The cells are seeded into a cell culture medium at a concentration of 10 000 cells per well, in 0.17 ml of medium, and 20 μl of test product, at various concentrations and 10 μl of thymidine [methyl-14C] (100 μCi/ml—specific activity 47.90 mCi/mmol; NEN Technologies reference NEC568 batch 3550-001) are added and the cells are then incubated at 37° C. and 5% CO2.
Medium used for the HCT116 cell culture: DMEM medium, 2 mM L-glutamine, 200 IU/ml penicillin, 200 μg/ml streptomycin and 10% (V/V) foetal calf serum (Life Technologies).
After 96 hours, the ^14C-thymidine incorporation is counted in a 1450 Microbeta Wallac Trilux liquid scintillation counter. The results R are expressed in cpm (counts per minute) and converted to percentage growth inhibition GI % by firstly subtracting the mean of the number of cpm of the wells without cells B and then dividing by the number of cpm of the wells of the nontreated cells C comprising 20 μl of product diluting medium containing 1% of ethanol (GI %=(R−B)×100/C %).
The IC50 values are calculated using equation 205 of the XLFit software (IDBS company, UK) by nonlinear regression analysis using the Marquardt algorithm (Donald W. MARQUARDT, J. Soc. industry. appl, vol 11, No. 2, June, 1963).
(In general: Dividing cells build labelled thymidine or BrdU into new DNA.)
`CO[C@@H](C(=O)NC1CCc2ccccc2N(Cc2cc(F)cc(F)c2)C1=O)[C@H](O)[C@@H](O)[C@H](O)/C=C/C(C)(C)C` (stereo partly shown) [Example 1] gave a pIC50 of 7.85.

On to `CO[C@@H](C(=O)NC1CCc2ccccc2N(C)C1=O)[C@H](O)[C@@H](O)[C@H](O)/C=C/C(C)(C)C` (stereo partly shown) [Example 2], for which the pIC50 is 7.82. This pIC50 and that of the compound before are within 0.2 log units of each other.

Consider `CO[C@@H](C(=O)NC1CCc2cc(Br)ccc2NC1=O)[C@H](O)[C@@H](O)[C@H](O)/C=C/C(C)(C)C` (stereo partly drawn) [Example 3, N-(7-bromo-2-oxo-2,3,4,5-tetrahydro-1H-1-benzazepin-3-yl)-(E)-(2R,3R,4S,5R)-3,4,5-trihydroxy-2-methoxy-8,8-dimethylnon-6-enamide], for which the negative logarithm of the IC50 (pIC50) was 7.24. Against the preceding compound, the pIC50 is 0.58 log units lower.

With `CO[C@@H](C(=O)N[C@H]1CCc2cc(Br)ccc2NC1=O)[C@H](O)[C@@H](O)[C@H](O)/C=C/C(C)(C)C` [Example 3a], the negative logarithm of the IC50 (pIC50) was 7.49.

In the case of `CO[C@@H](C(=O)NC1CCc2cc(-c3ccccc3)ccc2NC1=O)[C@H](O)[C@@H](O)[C@H](O)/C=C/C(C)(C)C` (stereo partly drawn) [Example 4, N-(7-phenyl-2-oxo-2,3,4,5-tetrahydro-1H-1-benzazepin-3-yl)-(E)-(2R,3R,4S,5R)-3,4,5-trihydroxy-2-methoxy-8,8-dimethylnon-6-enamide], the negative logarithm of the IC50 (pIC50) was 7.12.

As to `CO[C@@H](C(=O)N[C@H]1CCc2cc(-c3ccccc3)ccc2NC1=O)[C@H](O)[C@@H](O)[C@H](O)/C=C/C(C)(C)C` [Example 4a, (2R,3R,4S,5R,6E)-3,4,5-trihydroxy-2-methoxy-8,8-dimethyl-N-[(3S)-2-oxo-7-phenyl-2,3,4,5-tetrahydro-1H-1-benzazepin-3-yl]non-6-enamide], the negative logarithm of the IC50 (pIC50) is 7.85. Compared with the last compound, the pIC50 is 0.73 log units higher.

Test system in the next data set: not listed separately
As to the kind of experiment: in vitro. Particulars: human, Caco-2.
In the case of `CO[C@@H](C(=O)N[C@H]1CCc2cc(-c3ccccc3)ccc2NC1=O)[C@H](O)[C@@H](O)[C@H](O)/C=C/C(C)(C)C` [Example 4a, (2R,3R,4S,5R,6E)-3,4,5-trihydroxy-2-methoxy-8,8-dimethyl-N-[(3S)-2-oxo-7-phenyl-2,3,4,5-tetrahydro-1H-1-benzazepin-3-yl]non-6-enamide], the apparent permeability coefficient (Papp) was 48 nm/s.
